Structures can show the parent of a compound that is named as a salt.
Target: T1, TAFIa (purified human TAFI activated by thrombin-thrombomodulin complex) (Homo sapiens, UniProt Q96IY4)
T1 construct: purchased American Diagnostica TAFI Activity Kit (catalogue number not given)
T1 sequence (Q96IY4 115-423): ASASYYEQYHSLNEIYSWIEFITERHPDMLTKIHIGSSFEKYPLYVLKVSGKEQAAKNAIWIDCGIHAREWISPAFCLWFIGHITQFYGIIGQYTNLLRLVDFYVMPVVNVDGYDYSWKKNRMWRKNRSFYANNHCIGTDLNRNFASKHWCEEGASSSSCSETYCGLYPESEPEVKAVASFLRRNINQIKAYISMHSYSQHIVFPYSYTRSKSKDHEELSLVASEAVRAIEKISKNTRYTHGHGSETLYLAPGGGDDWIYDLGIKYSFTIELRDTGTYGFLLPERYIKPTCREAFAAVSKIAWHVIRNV
Test: Inhibition of TAFIa (chromogenic substrate, TAFI Activity Kit)
Format: biochemical
Settings: 3.2 nM TAFIa; compound incubated 5 minutes at 20° C., chromogenic substrate 30 minutes at 37° C., OD at 490 nm; read-out: IC50 (concentration which inhibits 50% of the enzymatic activity of TAFIa)
Description: Purified human TAFI (25 ng) is activated by adding thrombin-thrombomodulin complex in the presence of calcium chloride. After incubating for 20 minutes at 20° C., the reaction is stopped by adding the irreversible thrombin inhibitor PPACK (TAFI Activity Kit, American Diagnostica).
The compound under test is added to the (3.2 nM) TAFIa solution and incubated for 5 minutes at 20° C. A chromogenic TAFIa substrate is added and then incubated for 30 minutes at 37° C. The enzymatic reaction is stopped by adding sulphuric acid (TAFI Activity Kit, American Diagnostica). The optical density (OD) of the solution is measured at 490 nm with the aid of a spectrophotometer (Spectramax, Molecular Devices). The OD value of a well containing the reagents without the TAFI is subtracted from each of the OD values measured. The percentage inhibition of TAFIa at a given concentration of the compound under test is determined using the following formula: % inhibition=100−[(OD of compound×100)/OD of carrier]
The concentration of compound of the invention which inhibits 50% of the enzymatic activity of TAFIa (IC50) is calculated from the inhibition percentages of the OD values measured for increasing concentrations of the compound under test using non-linear regression according to a sigmoidal four-parameter equation (effect-dose).

| Structure (SMILES) | IC50 [µM] |
| --- | --- |
| NCCCC1(C(=O)O)CCCC1S (single isomer, unassigned) [Example 6, 1-(3-Aminopropyl)-2-mercaptocyclopentanecarboxylic acid trifluoroacetate (racemic cis diastereoisomer)] | 0.014 ± 0.002 |
| NCCCCC1(C(=O)O)CCCC1S (single isomer, unassigned) [Example 8, 1-(4-Aminobutyl)-2-mercaptocyclopentanecarboxylic acid trifluoroacetate (racemic cis diastereoisomer)] | 0.178 ± 0.011 |
| CC(=O)S[C@H]1CCC[C@@]1(CCCN)C(=O)O [Example 2, (1R,2S)-2-Acetylthio-1-(3-aminopropyl)-cyclopentanecarboxylic acid hydrochloride] | 0.022 ± 0.006 |
| NCCC[C@@]1(C(=O)O)CCC[C@@H]1S [Example 3, (1R,2S)-1-(3-Aminopropyl)-2-mercaptocyclopentanecarboxylic acid hydrochloride] | 0.0074 ± 0.0011 |
| O=C(O)[C@@]1(CC2CCNCC2)CCC[C@H]1S (single isomer, unassigned) [Example 13, 2-Mercapto-1-(piperidin-4-ylmethyl)-cyclopentanecarboxylic acid trifluoroacetate (racemic cis diastereoisomer)] | 0.184 ± 0.022 |
| NCCC[C@@]1(C(=O)O)CCC[C@@H]1S [Example 1, (1R,2S)-1-(3-Aminopropyl)-2-mercaptocyclopentanecarboxylic acid trifluoroacetate] | 0.0067 ± 0.0006 |
| NCCCC[C@]1(C(=O)O)CCC[C@H]1S (single isomer, unassigned; enantiomer 2) [Example 10, 1-(4-Aminobutyl)-2-mercaptocyclopentanecarboxylic acid trifluoroacetate (cis diastereoisomer, enantiomer 2)] | 0.081 ± 0.016 |
| NCCC[C@@]1(C(=O)O)CCC[C@@H]1SS[C@H]1CCC[C@@]1(CCCN)C(=O)O [Example 20, (1R,2S,1′R,2′S)-2,2′-Disulphanediylbis[1-(3-aminopropyl)cyclopentane-carboxylic acid]dihydrochloride] | 0.186 ± 0.026 |
